The target of one experiment is T1, Human cGAS (Homo sapiens, UniProt Q8N884).
T1 construct: hexahistidine tag (N, cleaved yes); made in house; host or cells: E. coli BL21 DE3 Rosetta 2
Nature of the experiment: cGAS biochemical activity assay (ATP levels by Kinase-Glo Max luminescence). The note with it: human cGAS amino acids 155-522, 25 nM, activated by 1 μM double stranded DNA, 37° C. for 1.25 hours. The method, then: Human cGAS sequence encoding amino acids 155-522 was cloned into a pET (EMD Millipore) based expression plasmid. The resulting construct contained a tandem N-terminal hexahistidine tag, maltose binding protein fusion followed by a tobacco etch virus protease cleavable linker preceding cGAS amino acids 155-522.
Protein was expressed and purified from E. coli BL21 DE3 Rosetta 2 (EMD Millipore) cells using standard techniques. Cells were grown in 2× yeast extract tryptone medium and expression was initiated via the addition of isopropyl β-D-1-thiogalactopyranoside. Expression proceeded overnight at 18° C. Cells were harvested by centrifugation and subsequently […] via sonication. Insoluble fraction was removed by centrifugation. Maltose binding protein (MBP) fusion proteins were purified on a dextrin sepharose column (GE Healthcare) and the MBP tag was removed using tobacco etch virus protease overnight during dialysis. Protein was further purified on a heparin column (GE Healthcare) and eluted using a NaCl gradient. Column fraction were pooled and further purified on a Superdex 75 gel filtration column (GE Healthcare). Protein was quantified using 280 nm absorbance. Protein was then flash frozen in liquid nitrogen and stored at −80° C., until use.
Potential antagonists were diluted in 100% dimethyl sulfoxide and added to the reaction. Final dimethyl sulfoxide concentration was 5%. The compounds were tested from 250 μM with 5-fold serial dilutions down to 0.000128 μM.
Two complementary DNA oligos (IDT DNA) were annealed by slow cooling from 95° C. The resulting double stranded DNA was used to activate cGAS.
Reactions were performed at 37° C., for 1.25 hours. Reaction buffer: 20 mM Tris HCl pH 9, 100 mM NaCl, 5 mM MgCl2, 0.1 mg/ml bovine gamma globulin, 1 mM adenosine triphosphate, 250 μM guanosine triphosphate, 0.5 mM Tris(2-carboxyethyl)phosphine hydrochloride, 1 μM double stranded DNA and 25 nM purified cGAS protein.
Reactions were stopped and ATP levels in the reaction were measured using a luciferase based assay. Promega Kinase-Glo Max Assay. Luminescence was measured on a plate reader (Molecular Devices). Values were normalized to control wells lacking compound.
A general note: Kinase-Glo reads ATP consumption through a luciferase reaction.

The test system of another experiment is cGAS/STING pathway. Briefly: THP1 cell-based cGAS/STING pathway activity assay (luciferase reporter linked to IRF-3 activation). The note with it: Homo sapiens, THP-1. The source says:
A cellular assay can be used to assess the compounds of the invention for their ability to inhibit the cGAS/STING pathway. Cells that express a luciferase-based reporter that is linked to IRF-3 activation are used to determine response as a function of compound concentration. Such an assay is described in Vincent et al., Nature Communications 2017, 8(1):750, doi: 10.1038/s41467-017-00833-9.
A cellular assay can be used to assess the compounds of the invention for their ability to inhibit the cGAS/STING pathway. Cells that express a luciferase-based reporter that is linked to IRF-3 activation are used to determine response as a function of compound concentration. Such an assay is described in Vincent et al., Nature Communications 2017, 8(1):750, doi: 10.1038/s41467-017-00833-9. Compounds of the invention were assessed using similar assay methods in a THP1 cell assay to generate IC50 values.
(In general: Reporter assays use an easily measured gene product as a stand-in for the process of interest.)

T1 sequence (Q8N884 157-522): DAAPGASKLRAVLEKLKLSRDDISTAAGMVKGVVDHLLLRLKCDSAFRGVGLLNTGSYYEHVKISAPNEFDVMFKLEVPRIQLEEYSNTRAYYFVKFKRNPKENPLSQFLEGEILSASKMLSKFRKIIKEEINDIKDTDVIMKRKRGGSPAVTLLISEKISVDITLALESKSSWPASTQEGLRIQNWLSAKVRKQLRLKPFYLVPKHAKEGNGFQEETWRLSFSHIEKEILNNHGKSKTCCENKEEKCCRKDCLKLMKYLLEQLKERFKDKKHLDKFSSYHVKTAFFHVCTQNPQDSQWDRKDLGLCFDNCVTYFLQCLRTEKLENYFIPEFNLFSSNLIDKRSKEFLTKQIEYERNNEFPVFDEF

`Cc1cc(=O)c2nc(C#N)c(-c3ccccc3)n2[nH]1` [Compound 3, 6-methyl-8-oxo-3-phenyl-5,8-dihydroimidazo[1,2-b]pyridazine-2-carbonitrile] came in with a half-inhibitory concentration (IC50) against Human cGAS of less than 1000 nM.

For `Cc1[nH]n2c(-c3ccccc3)c(C#N)nc2c(=O)c1-c1cccc(Cl)c1` [Compound 6, 7-(3-chlorophenyl)-6-methyl-8-oxo-3-phenyl-5,8-dihydroimidazo[1,2-b]pyridazine-2-carbonitrile], the results for the half-maximal inhibitory concentration (IC50) at Human cGAS and in the experiment on cGAS/STING pathway were less than 1000 nM and less than 10000 nM, respectively.

With `CCc1ccc(-c2c(C)[nH]n3c(-c4ccccc4)c(C#N)nc3c2=O)cc1` [Compound 13, 7-(4-ethylphenyl)-6-methyl-8-oxo-3-phenyl-5,8-dihydroimidazo[1,2-b]pyridazine-2-carbonitrile], the IC50 was less than 1000 nM against Human cGAS and less than 10000 nM with cGAS/STING pathway.

`COc1cccc(-c2c(C)[nH]n3c(-c4ccccc4)c(C#N)nc3c2=O)c1` [Compound 5, 7-(3-methoxyphenyl)-6-methyl-8-oxo-3-phenyl-5,8-dihydroimidazo[1,2-b]pyridazine-2-carbonitrile]: the IC50 is less than 1000 nM on Human cGAS and less than 10000 nM with cGAS/STING pathway.

By IC50 is commonly meant the concentration at which inhibition is half-maximal. The low end stands for higher potency, the high end for lower potency.

(Values after patent US20200181153A1, “IMIDAZOPYRIDAZINONE COMPOUNDS AND USES THEREOF” (Aduro Biotech, Inc., priority 2018, published 2020).)
